How the values were obtained:
[1] = biological target: T1, human Edg-1 (S1P1) (Homo sapiens, UniProt P21453); experiment: S1P1 binding assay: inhibition of [33P]-S1P binding to membrane fraction of HEK-293 cells transferred with the human Edg-1 (S1P1) gene; conditions: for IC50: [33P]-S1P 0.1 nM, human Edg-1 (S1P1) HEK-293 membrane fraction, 1 h at 30° C., read-out: IC50 (concentration at which binding in the absence of the test compound was inhibited by 50%)
T1 construct: expressed in transfected cells; host or cells: HEK-293
Outline: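 Membranes from S1P1-transfected HEK-293 cells incubated 1 h at 30° C in pH 7.4 Tris buffer with fatty acid-free BSA, 0.1 nM [33P]-S1P and test compound (0.1% DMSO). Filter-bound radioactivity was counted; inhibition corrected for binding to untransfected-cell membranes, and IC50 derived from concentration series.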

[2] = test compound 10 μM, inhibition of [33P]-S1P binding, membrane fraction

T1 sequence (P21453 whole entry): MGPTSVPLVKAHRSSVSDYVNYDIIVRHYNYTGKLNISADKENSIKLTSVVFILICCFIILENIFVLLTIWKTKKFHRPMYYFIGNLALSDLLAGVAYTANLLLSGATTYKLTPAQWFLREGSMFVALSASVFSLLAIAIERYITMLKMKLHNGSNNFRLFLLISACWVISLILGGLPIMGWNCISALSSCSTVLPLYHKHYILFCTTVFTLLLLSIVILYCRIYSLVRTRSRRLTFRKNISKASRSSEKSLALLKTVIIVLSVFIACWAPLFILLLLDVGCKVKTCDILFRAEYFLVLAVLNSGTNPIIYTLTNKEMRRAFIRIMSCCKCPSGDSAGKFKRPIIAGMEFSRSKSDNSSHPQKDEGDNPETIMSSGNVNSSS

Row | Compound | IC50 [1] [nM] | inhibition at 10 µM [1, 2] [%] | melting point [°C] | Binding assay (membrane) % inhibition (10 μM) ([1]; test compound 10 μM, inhibition of [33P]-S1P binding, membrane fraction, 10 µM) [%]
1 | CCn1c(Oc2cccc(N3CCN(C(C)C)CC3)c2)nnc1[C@@H](C)NS(=O)(=O)c1ccc2cccc(Cl)c2c1 [Compound 669] | ≤ 10 | 100 | 131.5 to 132.5 | –
2 | CCn1c(Oc2ccc3cc[nH]c3c2)nnc1[C@@H](C)NS(=O)(=O)c1ccc2cccc(Cl)c2c1 [Compound 670] | 5.2 | 101 | 214.5 to 218 | –
3 | CCn1c(Oc2ccc(F)c(N3CCN(C)CC3)c2)nnc1[C@@H](C)NS(=O)(=O)c1ccc2c(Cl)cccc2c1 [Compound 680] | 1.4 | 100 | 169.5 to 170.5 | –
4 | CCn1c(Oc2ccc(F)c(N3CCN(C)CC3)c2)nnc1[C@@H](C)NS(=O)(=O)c1ccc(Cl)c(Cl)c1 [Compound 681] | ≤ 10 | 100 | 189 to 189.5 | –
5 | CCn1c(Oc2ccc(F)cc2)nnc1C(C)(C)NS(=O)(=O)c1ccc(Cl)c(Cl)c1 [Compound 682] | – | 76.6 | 228 to 228.5 | –
6 | CCn1c(Oc2ccc(F)cc2)nnc1C1(NS(=O)(=O)c2ccc(Cl)c(Cl)c2)CC1 [Compound 685] | – | 65.1 | 255 to 260 | –
7 | CCn1c(Oc2cccc(N3CCN(C)CC3)c2)nnc1C1(NS(=O)(=O)c2ccc(Cl)c(Cl)c2)CC1 [Compound 686] | – | 92.7 | 220.5 to 221 | –
8 | CCn1c(Oc2cccc(N3CCN(C)CC3)c2)nnc1[C@@H](C)NS(=O)(=O)c1ccc2c(C#N)cccc2c1 [Compound 692] | 5.1 | 98.5 | 227 to 229 | –
9 | CCn1c(Oc2cccc(N3CCN(C)CC3)c2)nnc1[C@@H](C)NS(=O)(=O)c1ccc2c(S(C)(=O)=O)cccc2c1 [Compound 693] | – | 97.7 | 158 to 161 | –
10 | CCn1c(Oc2cccc(N3CCN(C)CC3)c2)nnc1[C@@H](C)NS(=O)(=O)c1ccc2c(Cl)ccc(Cl)c2c1 [Compound 694] | 2.9 | 106 | 189 to 191 | –

Further lines, results first:

Row | IC50 [1] [nM] | inhibition at 10 µM [1, 2] [%] | melting point [°C] | Binding assay (membrane) % inhibition (10 μM) ([1]; test compound 10 μM, inhibition of [33P]-S1P binding, membrane fraction, 10 µM) [%] | Compound
11 | ≤ 10 | 99.2 | 207 to 208 | – | CCn1c(Oc2cccc(N3CCN(C)CC3)c2)nnc1[C@@H](C)NS(=O)(=O)c1ccc2c(Br)cccc2c1 [Compound 667]
12 | ≤ 10 | 100 | 175 to 178 | – | CCn1c(Oc2cccc(N3CCNCC3)c2)nnc1[C@@H](C)NS(=O)(=O)c1ccc(Cl)c(Cl)c1 [Compound 683, 3,4-Dichloro-N-[(R)-1-[4-ethyl-5-(3-piperazin-1-yl-phenoxy)-4H-[1,2,4]triazol-3-yl]-ethyl]-benzenesulfonamide]
13 | 1.5 | 100 | 192 to 193 | – | CCn1c(Oc2cccc(N3CCNCC3)c2)nnc1[C@@H](C)NS(=O)(=O)c1ccc2c(Cl)cccc2c1 [Compound 688]
14 | ≤ 10 | 102 | 198 to 200 | – | CCn1c(Oc2cccc(N3CCN(C)CC3)c2)nnc1[C@@H](C)NS(=O)(=O)c1ccc2c(I)cccc2c1 [Compound 690]
15 | 2.6 | – | 180 to 182 | 98.5 | CCn1c(Oc2cccc(N3CCN(C)CC3)c2)nnc1[C@@H](C)NS(=O)(=O)c1ccc2c(I)cccc2c1 [Compound 691]
